# Results from publication PMC9229294, “Pyridazinones and Structurally Related Derivatives with Anti-Inflammatory Activity” (Molecules, 2022).
# Read-outs that look alike come from different tables or passages of the source.
# Legend:
# [1] = test system: LPS-induced NF-κB activity in THP1-Blue cells; assay: Inhibition of LPS-induced NF-κB transcriptional activity, alkaline phosphatase reporter, THP1-Blue cells; type: cell-based, human; conditions: for IC50: LPS-induced NF-κB activity, human THP1-Blue cells, N.A. = no activity at 50 µM; for Observed class for inhibition of NF-κB activity: experimentally observed, Active or N.A.; for Inhibition of LPS-induced NF-κB activity (in words): THP1-Blue cells, 250 ng/mL LPS, 24 h; for Effect of blocking FPR1 (Boc-MLF) on inhibitor activity on LPS-induced NF-κB activation: 25 μM Boc-MLF 15 min, then 5 µM compound, LPS-treated THP1 cells
# Method: (§1) Our studies included 175 compounds that were previously synthesized and characterized at NEUROFARBA, Pharmaceutical and Nutraceutical Section, University of Florence, Italy. We previously evaluated the FPR1/FPR2 agonist activity of these compounds by evaluating their ability to induce Ca^2+ mobilization in FPR-transfected HL60 cells and human neutrophils. […] All test compounds were dissolved in DMSO at stock concentrations of 10 mM and stored at −20 °C. For primary screening assays (analysis of NF-κB activation, IL-6 production, and cytotoxicity), the following final concentrations of the compounds were used: 3.125, 6.25, 12.5, 25, and 50 µM; the final concentration of DMSO was 1% in all samples.
# The activation of NF-κB was measured using an alkaline phosphatase reporter assay in human monocytic THP1-Blue cells stably transfected with a secreted embryonic alkaline phosphatase gene that is under the control of a promoter inducible by the NF-κB. The THP1-Blue cells (2 × 10^5 cells/well) were pretreated with the test compound or DMSO for 30 min, followed by an addition of 250 ng/mL LPS for 24 h. Alkaline phosphatase activity was determined in cell supernatants using a QUANTI-Blue mix (InvivoGen) and measured at 655 nm and compared with positive control samples (LPS).
# [2] = test system: LPS-induced IL-6 production in MonoMac-6 cells; assay: Inhibition of LPS-induced IL-6 production in MonoMac-6 cells (ELISA); type: cell-based, human; conditions: for IC50: Homo sapiens, MONO-MAC-6, read-out: Inhibition of IL-6 Production IC50 in MonoMac-6 Cells
# Method: as §1
# A human IL-6 ELISA kit (BD Biosciences, San Jose, CA, USA) was used to measure IL-6 production. […] The cells were pretreated with the test compound or DMSO for 30 min, followed by addition of 250 ng/mL LPS for 24 h. The IC50 values for IL-6 production were calculated by plotting the percentage inhibition against the logarithm of the inhibitor concentration (at least five points).
# [3] = Cytotoxicity, CellTiter-Glo, THP1-Blue cells; type: cell-based, human; conditions: human, THP1-Blue cells
# Method: as §1
# (§2) The cytotoxicity was analyzed with a CellTiter-Glo Luminescent Cell Viability Assay Kit from Promega (Madison, WI, USA), according to the manufacturer’s protocol. The luminescent ATP assays are based on a luciferase enzymatic reaction which uses ATP from viable cells to generate photons. For this assay, the cells were incubated with the compounds under investigation for 24 h. After treatment, the cells were equilibrated to room temperature for 30 min, luciferase + luciferin substrate was added, and the samples were analyzed with a Fluoroscan Ascent FL (Thermo Fisher Scientific, Waltham, MA, USA). The IC50 values were calculated by plotting the percentage inhibition against the logarithm of the inhibitor concentration (at least five points).
# [4] = Cytotoxicity, CellTiter-Glo, MonoMac-6 cells; type: cell-based, human; conditions: human, MonoMac-6 cells
# Method: as §1, §2
# MonoMac-6 cells = assay: Cytotoxicity, CellTiter-Glo, MonoMac-6 cells; type: cell-based, human; conditions: 24 h
# Method: as §1, §2
# FPR1 [5] = target: T1, FPR1 (Homo sapiens, UniProt P21462); assay: Ca2+ mobilization in FPR1-transfected HL-60 cells (agonist activity); type: cell-based; conditions: reported here for the first time (Suppl.)
# T1 construct: expressed in transfected cells; host or cells: HL-60 cells (FPR1-HL60)
# T1 sequence (P21462 1-350): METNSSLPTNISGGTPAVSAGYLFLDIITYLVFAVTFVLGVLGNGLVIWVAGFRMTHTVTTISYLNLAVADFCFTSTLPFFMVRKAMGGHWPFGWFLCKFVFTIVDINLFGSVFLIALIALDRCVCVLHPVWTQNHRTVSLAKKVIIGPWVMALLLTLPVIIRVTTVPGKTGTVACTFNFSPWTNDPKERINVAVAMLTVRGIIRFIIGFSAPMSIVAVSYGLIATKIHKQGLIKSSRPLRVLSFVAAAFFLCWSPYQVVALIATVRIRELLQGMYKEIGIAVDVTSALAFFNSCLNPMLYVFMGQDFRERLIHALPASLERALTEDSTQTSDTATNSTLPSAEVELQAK
# Method: (§3) Changes in the intracellular Ca^2+ [Ca^2+]i were measured with a FlexStation II scanning fluorometer (Molecular Devices). The cells, which were suspended in Hank’s balanced salt solution without Ca^2+ and Mg^2+ but with 10 mM HEPES (HBSS^−), were loaded with 1.25 μg/mL Fluo-4 AM dye and incubated for 30 min in the dark at 37 °C. After the dye loading, the cells were washed with HBSS^− containing 10 mM HEPES, resuspended in HBSS^+ containing Ca^2+, Mg^2+, and 10 mM HEPES (HBSS^+), and aliquoted into the wells of black microtiter plates (2 × 10^5 cells/well). […] The maximum change in the fluorescence during the first 3 min, expressed in arbitrary units over the baseline, was used to determine a response. […] A curve fitting (5–6 points) and a calculation of median effective inhibitory concentrations (IC50) were performed by nonlinear regression analysis of the dose–response curves generated using Prism 8 (GraphPad Software, Inc., San Diego, CA, USA).
# FPR2 [6] = target: T2, FPR2 (Homo sapiens, UniProt P25090); assay: Ca2+ mobilization in FPR2-transfected HL-60 cells (agonist activity); type: cell-based; conditions: reported here for the first time (Suppl.)
# T2 construct: expressed in transfected cells; host or cells: HL-60 cells (FPR2-HL60)
# T2 sequence (P25090 1-351): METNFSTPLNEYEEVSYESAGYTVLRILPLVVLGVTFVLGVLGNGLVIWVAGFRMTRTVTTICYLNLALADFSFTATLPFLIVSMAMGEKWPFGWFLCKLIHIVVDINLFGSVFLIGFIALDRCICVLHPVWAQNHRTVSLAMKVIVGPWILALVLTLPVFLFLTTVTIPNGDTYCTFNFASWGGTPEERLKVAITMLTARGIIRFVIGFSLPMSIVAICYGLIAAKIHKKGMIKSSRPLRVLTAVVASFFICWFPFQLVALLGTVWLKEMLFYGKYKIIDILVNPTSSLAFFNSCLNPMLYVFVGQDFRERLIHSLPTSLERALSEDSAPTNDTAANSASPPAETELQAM
# Method: as §3
# [7] = test system: rats with CFA-induced inflammatory arthritis; parameters: method as in PMID 32388428; conditions: cited from earlier work
# FPR1 [8] = target: T1, FPR1; conditions: FPR1-transfected HL-60 cells, read-out: Ca2+ Mobilization FPR1 EC50 in HL-60 Cells, cited from earlier work
# FPR2 [9] = target: T2, FPR2; conditions: FPR2-transfected HL-60 cells, read-out: Ca2+ Mobilization FPR2 EC50 in HL-60 Cells, cited from earlier work
# mouse aortas = test system: mouse aortas; parameters: method as in PMID 19639995, PMID 32085666, PMID 28169296; conditions: cited from earlier work
# [10] = test system: myocardial infarction injury in mice; parameters: method as in PMID 19639995, PMID 32085666, PMID 28169296; conditions: cited from earlier work
# THP1-Blue cells = assay: Cytotoxicity, CellTiter-Glo, THP1-Blue cells; type: cell-based, human; conditions: for Cytotoxicity in THP1-Blue Cells (FPR peptide agonists): peptides tested at 5 nM, N.T. = no cytotoxicity
# Method: as §1, §2
# [11] = N.T. = no cytotoxicity at 50 µM, read-out: Cytotoxicity IC50 in THP1-Blue Cells
# [12] = Table 3, as reported previously (see Table 1)
smiles,measurement,setting,value
Cc1cc(Cc2ccsc2)c(=O)n(CC(=O)Nc2ccc(Br)cc2)n1 [Compound 9],IC50,[1]; Homo sapiens,18 ± 0.7 µM
same,Observed class for inhibition of NF-κB activity,[1],Active
same,IC50,[2],27.5 ± 1.6 µM
same,IC50 at 24 h,[3]; [11],> 50 µM
same,IC50 at 24 h,[4],19 ± 3.6 µM
same,Cytotoxicity in MonoMac-6 cells (in words),MonoMac-6 cells,exhibiting cytotoxicity
Cc1cc(Cc2ccc(C(=O)Nc3ccc(Br)cc3)cc2)c(=O)n(CC(=O)Nc2ccc(Br)cc2)n1 [Compound 61],EC50,FPR1 [5],> 50 µM
same,EC50,FPR2 [6],> 50 µM
COc1cccc(Cc2c(C)c(C)nn(CC(=O)Nc3ccc(Br)cc3)c2=O)c1 [Compound 69],IC50,[1]; Homo sapiens,34.5 ± 2.6 µM
same,Inhibition of LPS-induced NF-κB activity (in words),[1],inhibited
same,Observed class for inhibition of NF-κB activity,[1],Active
same,IC50 at 24 h,[3]; [11],> 50 µM
same,Pain hypersensitivity,[7],reduce pain hypersensitivity
"COc1cccc(Cc2c(-c3ccccc3)c(C)nn(CC(=O)Nc3ccc(Br)cc3)c2=O)c1 [Compound 71, N-(4-bromophenyl)-2-[5-(3-methoxybenzyl)-3-methyl-6-oxo-4-phenylpyridazin-1(6H)-yl]-acetamide]",Effect of blocking FPR1 (Boc-MLF) on inhibitor activity on LPS-induced NF-κB activation,[1],no effect
same,IC50,[1]; Homo sapiens,0.5 ± 0.1 µM
same,Inhibition of LPS-induced NF-κB activity (in words),[1],inhibited
same,Observed class for inhibition of NF-κB activity,[1],Active
same,IC50,[2],2 ± 0.3 µM
same,Inhibition of LPS-induced IL-6 production (in words),"[2]; MonoMac-6 cells, 250 ng/mL LPS, 24 h",inhibited
same,IC50 at 24 h,[3]; [11],> 50 µM
same,IC50 at 24 h,[4],> 50 µM
same,EC50,FPR1 [8]; [12],2.2 µM
same,EC50,FPR2 [9]; agonist activity from Table 1,> 50 µM
same,EC50,FPR2 [9]; [12],> 50 µM
same,Pain hypersensitivity,[7],reduce pain hypersensitivity
COc1cccc(Nc2c(C(C)=O)c(C)nn(CC(=O)Nc3ccc(Br)cc3)c2=O)c1 [Compound 73],Inhibition of LPS-induced NF-κB activity (in words),[1],inactive
same,Pain hypersensitivity,[7],reduce pain hypersensitivity
"COc1cccc(Cc2cc(C)nn(C(C)C(=O)Nc3ccc(Br)cc3)c2=O)c1 (centres unmarked) [Compound 84, N-(4-bromophenyl)-2-[5-(3-methoxybenzyl)-3-methyl-6-oxopyridazin-1(6H)-yl]-propanamide]",Effect of blocking FPR1 (Boc-MLF) on inhibitor activity on LPS-induced NF-κB activation,[1],no effect
same,IC50,[1]; Homo sapiens,0.6 ± 0.1 µM
same,IC50,[2],30.7 ± 1.8 µM
same,IC50 at 24 h,[3]; [11],> 50 µM
same,IC50 at 24 h,[4],> 50 µM
same,Endothelium-independent relaxation,mouse aortas,induce endothelium-independent relaxation
same,Cardioprotection in myocardial infarction injury,[10],cardioprotection effect
CC1CC(c2ccccc2)=NN(CC(=O)Nc2ccc(Br)cc2)C1=O (centres unmarked) [Compound 125],IC50,[1],22.4 ± 0.7 µM
same,IC50,[2],7.2 ± 0.03 µM
same,IC50,"THP1-Blue cells; THP1-Blue cells, N.T. = no cytotoxicity at 50 µM",> 50 µM
same,IC50 at 24 h,[4],> 50 µM
same,EC50,FPR1 [8]; agonist activity from Table 1,24.4 µM
same,EC50,FPR1 [8]; [12],24.4 µM
same,EC50,FPR2 [9]; agonist activity from Table 1,10 µM
same,EC50,FPR2 [9]; [12],10 µM
Nc1cc(-c2ccncc2)cn(CC(=O)Nc2ccc(Br)cc2)c1=O [Compound 139],EC50,FPR1 [5],> 50 µM
same,EC50,FPR2 [6],> 50 µM
COc1cccc(Nc2c(C)c(-c3ccccc3)nn2CC(=O)Nc2ccc(Br)cc2)c1 [Compound 158],IC50,[1]; Homo sapiens,8.8 ± 1.1 µM
same,Observed class for inhibition of NF-κB activity,[1],Active
same,IC50 at 24 h,"[3]; 24 h, read-out: Cytotoxicity IC50",22 to 26 µM
same,IC50 at 24 h,[3]; [11],22.4 ± 5.2 µM
same,Cytotoxicity in THP1-Blue cells (in words),THP1-Blue cells; 24 h,cytotoxic
same,EC50,FPR1 [8]; agonist activity from Table 1,> 50 µM
same,EC50,FPR2 [9]; agonist activity from Table 1,> 50 µM
"CSCC[C@H](NC(=O)[C@@H](NC(=O)[C@H](CCSC)NC(=O)[C@H](Cc1ccc(O)cc1)NC(=O)[C@H](CCCCN)NC(=O)[C@@H](N)Cc1c[nH]c2ccccc12)C(C)C)C(=O)O [WKYMVM, Trp-Lys-Tyr-Met-Val-Met, reference compound]",Cytotoxicity in THP1-Blue Cells (FPR peptide agonists),THP1-Blue cells; THP1-Blue cells,N.T. (No cytotoxicity was observed at the highest concentration tested (50 µM))
CSCC[C@H](NC=O)C(=O)N[C@@H](CC(C)C)C(=O)N[C@@H](Cc1ccccc1)C(=O)O [f MLF],Cytotoxicity in THP1-Blue Cells (FPR peptide agonists),THP1-Blue cells; THP1-Blue cells,N.T. (No cytotoxicity was observed at the highest concentration tested (50 µM))
